A word on the MIC90: it is the lowest concentration that inhibits either 90% of growth or 90% of the strains tested, depending on the study. The low end stands for higher susceptibility, the high end for lower susceptibility.

Values after ≈ are worked out from the molar mass of the structure shown. Active and inactive are the calls of the source. No cut-off for these calls is given here.

Here are results for three compounds from ChEMBL document CHEMBL3779786, “Tabtoxinine--lactam is a stealth -lactam antibiotic that evades -lactamase-mediated antibiotic resistance” (Medchemcomm, 2016).

Data set [1] in a line: Drug level assessed as 2 nM Escherichia coli DH5alpha beta lactamase CTX-M-9 mediated compound formation treated with benzyl penicillin at 1 mM after 30 mins by LCMS analysis. The class given is ADME. Conditions: escherichia coli dh5[alpha], 0.5 h, 1000 µM.
The nature of data set [2]: Drug level assessed as 1 uM Escherichia coli DH5alpha beta lactamase TEM-1 mediated compound formation treated with benzyl penicillin at 1 mM after 5 hrs by LCMS analysis. The data set is classed as ADME. Conditions: escherichia coli dh5[alpha], 1000 µM.
Data set [3] is described as follows: Drug level assessed as 2 nM Escherichia coli DH5alpha beta lactamase CTX-M-9 mediated compound formation treated with benzyl penicillin at 1 mM after 30 mins by HPLC analysis. The data set is classed as ADME. Conditions: escherichia coli dh5[alpha], 0.5 h, 1000 µM.
Data set [4] can be described thus: Drug level assessed as 1 uM Escherichia coli DH5alpha beta lactamase CTX-M-9 mediated compound formation treated with benzyl penicillin at 1 mM after 5 hrs by LCMS analysis. The data set is classed as ADME. The settings on record: escherichia coli dh5[alpha], 1000 µM.
The nature of data set [5]: Drug level assessed as 1 uM Escherichia coli DH5alpha beta lactamase TEM-1 mediated compound formation treated with benzyl penicillin at 1 mM after 5 hrs by HPLC analysis. The data set is classed as ADME. Conditions: escherichia coli dh5[alpha], 1000 µM.
Data set [6] in a line: Drug level assessed as 1 uM Escherichia coli DH5alpha beta lactamase CTX-M-9 mediated compound formation treated with benzyl penicillin at 1 mM after 5 hrs by HPLC analysis. The settings on record: escherichia coli dh5[alpha], 1000 µM. The data set is classed as ADME.
The nature of data set [7]: Drug level assessed as 2 nM Escherichia coli DH5alpha beta lactamase TEM-1 mediated compound formation treated with benzyl penicillin at 1 mM after 30 mins by LCMS analysis. The settings on record: escherichia coli dh5[alpha], 0.5 h, 1000 µM. The class given is ADME.
The nature of data set [8]: Drug level assessed as 2 nM Escherichia coli DH5alpha beta lactamase TEM-1 mediated compound formation treated with benzyl penicillin at 1 mM after 30 mins by HPLC analysis. The data set is classed as ADME. Conditions: escherichia coli dh5[alpha], 0.5 h, 1000 µM.
The nature of data set [9]: Drug metabolism assessed as 1 uM Escherichia coli DH5alpha beta lactamase TEM-1 mediated metabolite formation at 1 mM after 5 hrs by LCMS analysis. The class given is ADME. Conditions: escherichia coli dh5[alpha], 1000 µM.
Data set [10] can be described thus: Drug metabolism assessed as 1 uM Escherichia coli DH5alpha beta lactamase TEM-1 mediated metabolite formation at 1 mM after 5 hrs by HPLC analysis. The data set is classed as ADME. The settings on record: escherichia coli dh5[alpha], 1000 µM.
The nature of data set [11]: Drug metabolism assessed as 1 uM Escherichia coli DH5alpha beta lactamase CTX-M-9 mediated metabolite formation at 1 mM after 5 hrs by HPLC analysis. The class given is ADME. The settings on record: escherichia coli dh5[alpha], 1000 µM.
Data set [12] can be described thus: Drug metabolism assessed as 2 nM Escherichia coli DH5alpha beta lactamase TEM-1 mediated metabolite formation at 1 mM after 30 mins by HPLC analysis. The settings on record: escherichia coli dh5[alpha], 0.5 h, 1000 µM. The data set is classed as ADME.
Data set [13] in a line: Drug metabolism assessed as 2 nM Escherichia coli DH5alpha beta lactamase TEM-1 mediated metabolite formation at 1 mM after 30 mins by LCMS analysis. The class given is ADME. The settings on record: escherichia coli dh5[alpha], 0.5 h, 1000 µM.
Data set [14] is described as follows: Drug metabolism assessed as 2 nM Escherichia coli DH5alpha beta lactamase CTX-M-9 mediated metabolite formation at 1 mM after 30 mins by HPLC analysis. The class given is ADME. The settings on record: escherichia coli dh5[alpha], 0.5 h, 1000 µM.
The nature of data set [15]: Drug metabolism assessed as 2 nM Escherichia coli DH5alpha beta lactamase CTX-M-9 mediated metabolite formation at 1 mM after 30 mins by LCMS analysis. The class given is ADME. Conditions: escherichia coli dh5[alpha], 0.5 h, 1000 µM.
Data set [16] deals with Escherichia coli. Kind of data set: Antibacterial activity against Escherichia coli ATCC 25922 in glutamine-free minimal media after 24 hrs by broth microdilution method. The class given is functional. Conditions: ATCC 25922, 24 h. (In general: Dilution methods test growth across graded concentrations, often in twofold steps.)
A short description of data set [17]: Drug metabolism assessed as 1 uM Escherichia coli DH5alpha beta lactamase CTX-M-9 mediated metabolite formation at 1 mM after 5 hrs by LCMS analysis. The data set is classed as ADME. The settings on record: escherichia coli dh5[alpha], 1000 µM.
The test system of data set [18] is Escherichia coli. Put plainly: Bactericidal activity against Escherichia coli. The class given is functional, organism-based.
The subject of data set [19] is Staphylococcus aureus. Kind of data set: Bacteriostatic activity against Staphylococcus aureus in glutamine-free minimal media. The class given is functional, organism-based.
The test system of data set [20] is Escherichia coli. Put plainly: Antibacterial activity against Escherichia coli in glutamine containing nutrient broth at 0.06 to 128 uM. The class given is functional, organism-based.
Data set [21] concerns Escherichia coli. Kind of data set: Antibacterial activity against Escherichia coli BL21(DE3) in glutamine-free minimal media after 24 hrs by broth microdilution method. The data set is classed as functional.
Data set [22] has as its system Escherichia coli. Put plainly: Antibacterial activity against Escherichia coli DH5alpha expressing beta lactamase SHV-12 in glutamine-free minimal media after 24 hrs by broth microdilution method. The data set is classed as functional. Conditions: DH5[alpha].
Data set [23] relates to Escherichia coli. Put plainly: Antibacterial activity against Escherichia coli DH5alpha expressing beta lactamase VIM-2 in glutamine-free minimal media after 24 hrs by broth microdilution method. Conditions: DH5[alpha]. The class given is functional.
Data set [24] has as its system Escherichia coli. Kind of data set: Antibacterial activity against Escherichia coli DH5alpha expressing beta lactamase NDM-1 in glutamine-free minimal media after 24 hrs by broth microdilution method. The class given is functional. Conditions: DH5[alpha].
Data set [25] relates to Escherichia coli. Kind of data set: Antibacterial activity against Escherichia coli DH5alpha expressing beta lactamase TEM-24 in glutamine-free minimal media after 24 hrs by broth microdilution method. The class given is functional. Conditions: DH5[alpha].
The test system of data set [26] is Escherichia coli. Kind of data set: Antibacterial activity against Escherichia coli BL21(DE3) expressing beta lactamase TEM-1 in glutamine-free minimal media after 24 hrs by broth microdilution method. The data set is classed as functional.
The test system of data set [27] is Escherichia coli. Kind of data set: Antibacterial activity against Escherichia coli DH5alpha expressing beta lactamase TEM-1 in glutamine-free minimal media after 24 hrs by broth microdilution method. Conditions: DH5[alpha]. The class given is functional.
Data set [28] concerns Escherichia coli. Kind of data set: Antibacterial activity against Escherichia coli BL21(DE3) expressing beta lactamase CTX-M-9 with no leader sequence in glutamine-free minimal media after 24 hrs by broth microdilution method. The data set is classed as functional.
Data set [29] has as its system Escherichia coli. Put plainly: Antibacterial activity against Escherichia coli BL21(DE3) expressing beta lactamase TEM-64 in glutamine-free minimal media after 24 hrs by broth microdilution method. The class given is functional.
The subject of data set [30] is Escherichia coli. Put plainly: Antibacterial activity against Escherichia coli DH5alpha expressing beta lactamase OXA-24/40 in glutamine-free minimal media after 24 hrs by broth microdilution method. Conditions: DH5[alpha]. The data set is classed as functional.
Data set [31] concerns Escherichia coli. Kind of data set: Antibacterial activity against Escherichia coli DH5alpha expressing beta lactamase SHV-5 in glutamine-free minimal media after 24 hrs by broth microdilution method. Conditions: DH5[alpha]. The data set is classed as functional.
The subject of data set [32] is Escherichia coli. Kind of data set: Antibacterial activity against Escherichia coli DH5alpha in glutamine-free minimal media after 24 hrs by broth microdilution method. The class given is functional. Conditions: DH5[alpha].
The subject of data set [33] is Escherichia coli. Put plainly: Antibacterial activity against Escherichia coli DH5alpha expressing beta lactamase KPC-3 in glutamine-free minimal media after 24 hrs by broth microdilution method. The data set is classed as functional. Conditions: DH5[alpha].
The subject of data set [34] is Escherichia coli. Kind of data set: Antibacterial activity against Escherichia coli DH5alpha expressing beta lactamase CTX-M-15 in glutamine-free minimal media after 24 hrs by broth microdilution method. The class given is functional. The settings on record: DH5[alpha].
For data set [35], the system named is Escherichia coli. Put plainly: Antibacterial activity against Escherichia coli BL21(DE3) expressing beta lactamase CTX-M-9 in glutamine-free minimal media after 24 hrs by broth microdilution method. The class given is functional.
Data set [36] deals with Escherichia coli. Kind of data set: Antibacterial activity against Escherichia coli BL21(DE3) expressing beta lactamase TEM-1 with no leader sequence in glutamine-free minimal media after 24 hrs by broth microdilution method. The class given is functional.

As to `CC1(C)S[C@H]([C@H](NC(=O)Cc2ccccc2)C(=O)O)N[C@H]1C(=O)O`, the Drug metabolism result in data set [1], in data set [2], in data set [3], in data set [4], in [5] and in data set [6] was “metabolite_detected” each time. Further, the Drug metabolism result in data set [7] and in data set [8] was “metabolite_detected” throughout.

As to `N[C@@H](CC[C@]1(O)CNC1=O)C(=O)O`, the Drug metabolism result in [9], in data set [10], in [11], in [12], in data set [13] and in data set [14] was “metabolite_detected” each time. The Drug metabolism entry in [15] and in data set [17] was “metabolite_detected” in each case. In data set [16], this compound came in with an MIC90 greater than 128 µM.

Take `C[C@@H](O)[C@H](NC(=O)[C@@H](N)CC[C@]1(O)CNC1=O)C(=O)O`: the result in [18] and in data set [20] was inactive. Also, in data set [19], the outcome was Active. Besides, the Drug metabolism entry in [9], in [10], in data set [11], in data set [12], in [13] and in [14] was “metabolite_detected” throughout. The Drug metabolism entry in data set [15] and in data set [17] was “metabolite_detected” each time. Moreover, the MIC90 in data set [21] was determined as 8 µM (≈ 2.31 µg/mL); in data set [22] it was 0.25 µM (≈ 0.0723 µg/mL); in data set [23] it was 2 µM (≈ 0.579 µg/mL); in data set [24], 0.5 µM (≈ 0.145 µg/mL); in data set [25], 0.0625 µM (≈ 0.0181 µg/mL); in [26] it was 4 µM (≈ 1.16 µg/mL). In addition, the MIC90 in data set [27] is 0.25 µM (≈ 0.0723 µg/mL); in [28] it was 8 µM (≈ 2.31 µg/mL); in data set [29], 16 µM (≈ 4.63 µg/mL); in [30] it was 2 µM (≈ 0.579 µg/mL); in [31], less than 0.031 µM; in data set [32] it was 0.5 µM (≈ 0.145 µg/mL). Further, the MIC90 is 0.5 µM (≈ 0.145 µg/mL) in data set [33], 0.125 µM (≈ 0.0362 µg/mL) in data set [34], 4 µM (≈ 1.16 µg/mL) in data set [35] and 16 µM (≈ 4.63 µg/mL) in data set [36].
